The text below walks through data of patent US12528816B2, “Substituted imidazo [1,2-b] pyridazines and [1, 2, 4] triazolo [ 4,3-b] pyridazines as camkii inhibitors” (Cardurion Pharmaceuticals, INC., priority 2020, dated 2026).

For this experiment, the target named is T1, human CaMKIIδ (Homo sapiens, UniProt Q13557).
T1 construct: Full-length, glutathione-S-transferase(GST)-tagged, human CaMKIIδ was purchased from Carna Biosciences; purchased Carna Biosciences (CaMKIIδ); Wako Pure Chemical Industries (calmodulin) 02-111
Kind of experiment: Evaluation of in vitro CaMKII inhibitory activity (binding assay, TR-FRET). The conditions noted are these: human CaMKIIδ. The method, boiled down: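 Inhibitors, in eight concentrations of 4-fold dilution, were incubated 1 h at room temperature with a protein–fluorescent probe premix preformed 30 min on ice, containing calmodulin and terbium anti-GST antibody. Displacement read by TR-FRET in duplicate; IC50 by logistic fitting.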

Where [1] appears, read: in vitro CaMKII inhibitory activity (binding assay), read-out: Act.
Setting [2] is: TR-FRET binding assay, class symbols A/B/C, read-out: Act (CaMKII inhibitory activity, binding assay).

Where two headings read alike, the source gives them in different places.

As to `C[C@@H](Cn1cnnn1)Oc1cc(-c2ccc3ncc(-c4cc(N=S(C)(C)=O)ccc4C#N)n3n2)ccc1F` [compound 263], the IC50 under setting [1] was > 100 nM.

As for `C[C@@H](Cn1cnnn1)Oc1cccc(-c2ccn3ncc(-c4cccc(C(=O)N5CCC(C)(O)CC5)c4)c3n2)c1` [compound 99], under setting [2], the IC50 was in the range of 10 to 100 nM.

As for `COc1cccc(-c2cnc3ccc(-c4cccc(O[C@@H](C)Cn5cnnn5)n4)nn23)c1C#N` [compound 404, 2-methoxy-6-[6-(6-{[(2S)-1-(1H-tetrazol-1-yl)propan-2-yl]oxy}pyridin-2-yl)imidazo[1,2-b]pyridazin-3-yl]benzonitrile], under setting [1], the IC50 is < 10 nM.

`C[C@@H](Cn1cnnn1)Oc1cccc(-c2ccc3ncc(-c4cc[nH]c(=O)c4C#N)n3n2)c1` [compound 272, 2-oxo-4-[6-(3-{[(2S)-1-(1H-tetrazol-1-yl)propan-2-yl]oxy}phenyl)imidazo[1,2-b]pyridazin-3-yl]-1,2-dihydropyridine-3-carbonitrile]: the IC50 under setting [1] was < 10 nM.

With `C[C@@H](Cn1cnnn1)Oc1cc(-c2ccn3ncc(-c4cccc(C(F)F)c4)c3n2)ccc1F` [compound 131], the IC50 under setting [2] is < 10 nM.

For the molecule `C[C@@H](Cn1cnnn1)Oc1cccc(-c2ccn3ncc(-c4cccc(C(=O)NCCCN5CCOCC5)c4)c3n2)c1` [compound 78], the IC50 under setting [2] is < 10 nM.

Regarding `C[C@@H](Cn1cnnn1)Oc1cc(-c2ccc3ncc(-c4cccc(OCCCC(=O)O)c4C#N)n3n2)ccc1F` [compound 217], the IC50 under setting [2] is < 10 nM.

On to `C[C@@H](Cn1cnnn1)Oc1cc(-c2ccc3ncc(-c4cc(N=S5(=O)CCCC5)ccc4C#N)n3n2)ccc1F` [compound 264], for which the IC50 under setting [1] was > 100 nM.

In the case of `C[C@@H](Cn1cnnn1)Oc1cccc(-c2ccn3ncc(-c4cccc(C(=O)NCCN5CCS(=O)(=O)CC5)c4)c3n2)c1` [compound 87], the IC50 under setting [2] was < 10 nM.

As to `C[C@@H](Cn1cnnn1)Oc1cccc(-c2ccc3ncc(-c4cc(F)cc(OC(F)F)c4C#N)n3n2)n1` [Example 409, 2-(difluoromethoxy)-4-fluoro-6-[6-(6-{[(2S)-1-(1H-tetrazol-1-yl)propan-2-yl]oxy}pyridin-2-yl)imidazo[1,2-b]pyridazin-3-yl]benzonitrile], the IC50 under setting [1] was < 10 nM.

Take `COc1ccnc(-c2cnc3ccc(-c4ccc(F)c(O[C@@H](CO)Cn5cnnn5)c4)nn23)c1C#N` [Example 477, 2-[6-(4-fluoro-3-{[(2R)-1-hydroxy-3-(1H-tetrazol-1-yl)propan-2-yl]oxy}phenyl)imidazo[1,2-b]pyridazin-3-yl]-4-methoxypyridine-3-carbonitrile]: under setting [2], the IC50 is < 10 nM.

For the molecule `C[C@@H](Cn1cnnn1)Oc1cccc(-c2ccc3ncc(-c4cc(F)ccc4C#N)n3n2)n1` [Example 325, 4-fluoro-2-[6-(6-{[(2S)-1-(1H-tetrazol-1-yl)propan-2-yl]oxy}pyridin-2-yl)imidazo[1,2-b]pyridazin-3-yl]benzonitrile], under setting [1], the IC50 was < 10 nM.

For `C[C@@H](Cn1cnnn1)Oc1cccc(-c2ccc3ncc(-c4ncnc(N)c4C#N)n3n2)c1` [compound 394], under setting [1], the IC50 lay in the range of 10 to 100 nM.

In the case of `C[C@@H](Cn1cnnn1)Oc1cc(-c2ccc3ncc(-c4cccc(O)c4C#N)n3n2)ccc1F` [compound 170], the IC50 under setting [2] is < 10 nM.

With `COCCCn1ncc(-c2cnc3ccc(-c4ccc(F)c(O[C@@H](C)Cn5cnnn5)c4)nn23)c1C(=O)O` [compound 230], under setting [2], the IC50 is > 100 nM.

`C[C@@H](Cn1cnnn1)Oc1cc(-c2ccc3ncc(-c4cccc(OCC(F)(F)F)c4C#N)n3n2)ccc1F` [compound 214]: the IC50 under setting [2] is < 10 nM.

For `C[C@@H](Cn1cnnn1)Oc1cccc(-c2ccc3ncn(-c4cc(F)cc(C(F)F)c4C#N)c3n2)n1` [compound 407], the IC50 under setting [1] is 10 to 100 nM.

Regarding `C[C@@H](Cn1cnnn1)Oc1cc(-c2ccn3ncc(-c4cccnc4C#N)c3n2)ccc1F` [compound 137], under setting [2], the IC50 is < 10 nM.

As for `C[C@@H](Cn1cnnn1)Oc1cccc(-c2ccn3ncc(-c4cccc(C(=O)NC5CCN(C)C(=O)C5)c4)c3n2)c1` (stereo partly shown) [compound 112], the IC50 under setting [2] was < 10 nM.

Turning to `C[C@@H](Cn1cnnn1)Oc1cc(-c2ccn3ncc(-c4ccc(CN(C)C)cc4)c3n2)ccc1F` [compound 41], the IC50 under setting [2] is < 10 nM.

Consider `C[C@@H](Cn1cnnn1)Oc1cc(-c2ccn3ncc(-c4cccc(OCC#N)c4)c3n2)ccc1F` [compound 33], for which the IC50 under setting [2] was < 10 nM.

As for `CCc1ccnc(-c2cnc3ccc(-c4cccc(O[C@@H](C)Cn5cnnn5)c4)nn23)c1C#N` [compound 380], the IC50 under setting [1] is < 10 nM.

As to `Cc1cc(-c2cnc3ccc(-c4cccc(O[C@@H](C)Cn5cnnn5)c4)nn23)c(=O)n(C)c1` [compound 335], the IC50 under setting [1] was < 10 nM.

In the case of `Cc1ccnc(-c2cnc3ccc(-c4cccc(O[C@@H](C)Cn5cnnn5)c4)nn23)c1C#N` [compound 378], under setting [1], the IC50 was < 10 nM.

On to `C[C@@H](Cn1cnnn1)Oc1cccc(-c2ccc3ncc(-c4cc(F)c[nH]c4=O)n3n2)c1` [compound 324], for which the IC50 under setting [1] is < 10 nM.

For `C[C@@H](Cn1cnnn1)Oc1cc(-c2ccc3ncc(-c4cc(C#N)cn(C)c4=O)n3n2)ccc1F` [compound 221], the IC50 under setting [2] was < 10 nM.

Regarding `C[C@@H](Cn1cnnn1)Oc1cc(-c2ccn3ncc(-c4nccnc4C#N)c3n2)ccc1F` [compound 294], the IC50 under setting [1] was < 10 nM.

Turning to `CCOc1ncnc(-c2cnc3ccc(-c4cccc(O[C@@H](C)Cn5cnnn5)c4)nn23)c1C#N` [compound 365], the IC50 under setting [1] is < 10 nM.

`C[C@@H](Cn1cnnn1)Oc1cc(-c2ccc3ncc(-c4cccc[n+]4[O-])n3n2)ccc1F` [compound 218]: the IC50 under setting [2] is 10 to 100 nM.

As for `C[C@@H](Cn1cnnn1)Oc1cccc(-c2ccc3nnc(-c4ccccc4C#N)n3n2)c1` [compound 373], under setting [1], the IC50 was > 100 nM.

As to `CNC(=O)CNC(=O)c1cccc(-c2cnn3ccc(-c4cccc(O[C@@H](C)Cn5cnnn5)c4)nc23)c1` [compound 77], the IC50 under setting [2] was < 10 nM.

Take `C[C@@H](Cn1cnnn1)Oc1cccc(-c2ccc3ncc(-c4cc[n+]([O-])cc4C#N)n3n2)c1` [compound 282]: the IC50 under setting [1] fell in the range of 10 to 100 nM.

For the molecule `C[C@@H](Cn1cnnn1)Oc1cc(-c2ccn3ncc(-c4ccnn4C)c3n2)ccc1F` [compound 24], the IC50 under setting [2] was in the range of 10 to 100 nM.

For `C[C@@H](Cn1cnnn1)Oc1cc(-c2ccn3ncc(-c4ccc(C#N)cc4)c3n2)ccc1F` [compound 136], the IC50 under setting [2] was in the range of 10 to 100 nM.

In the case of `C[C@@H](Cn1cnnn1)Oc1cc(-c2ccn3ncc(-c4ccn(C)n4)c3n2)ccc1F` [compound 25], the IC50 under setting [2] is < 10 nM.

`C[C@@H](Cn1cnnn1)Oc1cccc(-c2ccn3ncc(-c4cccc(C(=O)NCc5cccnc5)c4)c3n2)c1` [compound 94]: the IC50 under setting [2] was < 10 nM.

For the molecule `CC(=O)N1CCC(NC(=O)c2cccc(-c3cnn4ccc(-c5cccc(O[C@@H](C)Cn6cnnn6)c5)nc34)c2)CC1` [compound 75], the IC50 under setting [2] is < 10 nM.

Consider `C[C@@H](Cn1cnnn1)Oc1cc(-c2ccc3ncc(-c4cccc(OCC5CCOCC5)c4C#N)n3n2)ccc1F` [compound 203], for which the IC50 under setting [2] is < 10 nM.

As to `C[C@@H](Cn1cnnn1)Oc1cccc(-c2ccc3ncc(-c4cnccc4C#N)n3n2)n1` [compound 415], the IC50 under setting [1] was < 10 nM.

As to `C[C@@H](Cn1cnnn1)Oc1cccc(-c2ccc3ncc(-c4cccc(C(C)(F)F)c4C#N)n3n2)c1` [Example 427, 2-(1,1-difluoroethyl)-6-[6-(3-{[(2S)-1-(1H-tetrazol-1-yl)propan-2-yl]oxy}phenyl)imidazo[1,2-b]pyridazin-3-yl]benzonitrile], the IC50 under setting [1] is < 10 nM.
